Laboratory results from US20120077705A1, “Methods for Identifying Autophagy Inducing Compounds” (President and Fellows of Harvard College, priority 2007, published 2012).
Non-standard residues stand in square brackets, D forms with d. Residues, ends and D or L forms follow the SMILES beside them. Nle = CCCC[C@H](N)C(=O)O

Test system: FYVE-RFP
Experiment: High-content analysis of FYVE-RFP fluorescence (PI(3)P level) in H4-FYVE cell line
Type: cell-based
Settings: H4-FYVE cells
Excerpt: Class III PI(3)K Vps34 is a multifunctional protein. On the one hand, it catalyzes the phosphorylation of PI to generate PI(3)P and is of key importance in the endocytic and autophagosome membrane transport processes. At the same time, a compound formed from Vps34/beclin1 is involved in the regulation of autophagy initiation signaling. Therefore, while the autophagy process is taking place, the level of PtdIns(3)P should not be expected to decrease to a significant extent. A FYVE domain is a protein structure domain composed of approximately 70 amino acid residues and containing a zinc finger protein structure; it can bind specifically with PI(3)P. Generally, PI(3)P recruits proteins containing a FYVE domain in order to bind to the membrane of cellular organelles, and participate in protein trafficking and similar processes.
H4 cells were transfected with the fusion protein FYVP-red fluorescent protein (FYVE-RFP). After transfection, the cells were screened in order to obtain a suitable H4-FYVE cell line to be used as a screening platform to perform high-volume screening of compounds, which thereby indirectly reflected the effect of the compound on autophagy. Compounds which reduced FYVE-RFP fluorescence intensity were eliminated. In this experiment, change in the intensity, fluorescence and distribution of the protein marker FYVE-RFP recruited by PI(3)P before and after treatment with the potential autophagy inducing compound was assayed by high-content microscopic analysis.
DMSO was used to dilute, dissolve, and prepare a compound at different concentrations with each concentration repeated three times. A 96-well plate was inoculated with H4-FYVE cells at an appropriate density and treated with the compound for 2, 4, and 8 hours, respectively. […] If a compound affected FYVE expression or distribution, then this would be embodied precisely in the image and in the size and intensity of fluorescent spots and other numerical values.

Q: What does the source list for `CN(C)C[C@H](O)Cn1c2ccc(Br)cc2c2cc(Br)ccc21` (racemic) [Wiskostatin]?
A: Relative fluorescent intensity of FYVE-RFP (%) (2 h): 267.90 ± 6.16%; Relative fluorescent intensity of FYVE-RFP (%) (4 h): 240.08 ± 4.26%; Relative fluorescent intensity of FYVE-RFP (%) (8 h): 131.93 ± 11.05%

Q: `CC[C@H](C)[C@H](NS(=O)(=O)c1ccc2ccccc2c1)C(=O)N[C@H](C=O)Cc1c[nH]c2ccccc12` [NapSul-Ile-Trp-CHO] was tested. Which “Relative fluorescent intensity of FYVE-RFP (%)” value (2 h) did it give?
A: The value was 89.37 ± 3.52%.

Q: What about the “Relative fluorescent intensity of FYVE-RFP (%)” value (4 h) of the same compound?
A: Its value is 64.10 ± 11.47%.

Q: What about the “Relative fluorescent intensity of FYVE-RFP (%)” value (8 h) of the same compound?
A: The value was 62.34 ± 8.21%.

Q: `CO[C@H]1C[C@@H]2CC[C@@H](C)[C@@](O)(O2)C(=O)C(=O)N2CCCC[C@H]2C(=O)O[C@H]([C@H](C)C[C@@H]2CC[C@@H](O)[C@H](OC)C2)CC(=O)[C@H](C)/C=C(\C)[C@@H](O)[C@@H](OC)C(=O)[C@H](C)C[C@H](C)/C=C/C=C/C=C/1C` [Rapamycin] was tested. Which “Relative fluorescent intensity of FYVE-RFP (%)” value (4 h) did it give?
A: The value was 131.41 ± 26.64%.

Q: What does the source list for `CN(CCc1ccc(Cl)c(Cl)c1)CC(O)COc1ccc(NS(C)(=O)=O)cc1` (stereo not shown) [AM 92016]?
A: Relative fluorescent intensity of FYVE-RFP (%) (2 h): 68.06 ± 1.20%; Relative fluorescent intensity of FYVE-RFP (%) (4 h): 71.97 ± 15.67%; Relative fluorescent intensity of FYVE-RFP (%) (8 h): 66.35 ± 17.66%

Q: What does the source list for `N#Cc1cc2c(OCC(O)CN3CCN(C(c4ccccc4)c4ccccc4)CC3)cccc2[nH]1` (stereo not shown) [SDZ-201106]?
A: Relative fluorescent intensity of FYVE-RFP (%) (2 h): 65.87 ± 4.72%; Relative fluorescent intensity of FYVE-RFP (%) (4 h): 59.79 ± 2.38%; Relative fluorescent intensity of FYVE-RFP (%) (8 h): 72.40 ± 20.27%

Q: How did the “Relative fluorescent intensity of FYVE-RFP (%)” value (2 h) turn out when `CCCNCC(O)COc1ccccc1C(=O)CCc1ccccc1` (stereo not shown) [Propafenone] was run?
A: Its value is 114.69 ± 8.90%.

Q: What about the “Relative fluorescent intensity of FYVE-RFP (%)” value (4 h) of the same compound?
A: The value was 78.75 ± 18.93%.

Q: And the “Relative fluorescent intensity of FYVE-RFP (%)” value (8 h)?
A: The value was 62.87 ± 3.38%.

Q: `O=C(/C=C/c1ccc(O)c(O)c1)OCCc1ccccc1` [CAPE] was tested. Which “Relative fluorescent intensity of FYVE-RFP (%)” value (2 h) did it give?
A: The value was 86.89 ± 20.98%.

Q: What about the “Relative fluorescent intensity of FYVE-RFP (%)” value (4 h) of the same compound?
A: Its value is 71.17 ± 18.70%.

Q: What about the “Relative fluorescent intensity of FYVE-RFP (%)” value (8 h) of the same compound?
A: The value was 69.14 ± 4.32%.

Q: Which “Relative fluorescent intensity of FYVE-RFP (%)” value (2 h) does the source give for `CO[C@@H]1C[C@@H](C[C@H]2CC[C@H](C)[C@H]([C@@H](C)C(=O)O)O2)O[C@]2(O[C@](C)([C@H]3CC[C@@](C)([C@@H]4O[C@@H]([C@H]5O[C@@](O)(CO)[C@H](C)C[C@@H]5C)C[C@@H]4C)O3)C[C@H]2C)[C@@H]1C` [Nigericin] here?
A: The value was 148.43 ± 5.17%.

Q: What about the “Relative fluorescent intensity of FYVE-RFP (%)” value (4 h) of the same compound?
A: Its value is 145.40 ± 8.39%.

Q: What about the “Relative fluorescent intensity of FYVE-RFP (%)” value (8 h) of the same compound?
A: Its value is 140.54 ± 18.21%.

Q: What does the source list for `CC/C(=C(\c1ccccc1)c1ccc(OCCN(C)C)cc1)c1ccccc1` [Tamoxifen]?
A: Relative fluorescent intensity of FYVE-RFP (%) (2 h): 77.66 ± 4.43%; Relative fluorescent intensity of FYVE-RFP (%) (4 h): 71.55 ± 0.73%; Relative fluorescent intensity of FYVE-RFP (%) (8 h): 85.37 ± 7.59%

Q: Which results are given for `CCCNC(=O)[C@H]1O[C@@H]1C(=O)N[C@H](C(=O)N1CCC[C@H]1C(=O)OC)[C@@H](C)CC` [CA-074-Me]?
A: Relative fluorescent intensity of FYVE-RFP (%) (2 h): 65.94 ± 12.73%; Relative fluorescent intensity of FYVE-RFP (%) (4 h): 79.82 ± 4.66%; Relative fluorescent intensity of FYVE-RFP (%) (8 h): 86.43 ± 4.15%

Q: Which “Relative fluorescent intensity of FYVE-RFP (%)” value (2 h) does the source give for `CCCC[C@@H](C=O)NC(=O)[C@H](CC(C)C)NC(=O)[C@H](CC(C)C)NC(C)=O` [Ac-Leu-Leu-Nle-CHO] (Ac-Leu-Leu-[Nle]-aldehyde) here?
A: The value was 72.86 ± 10.18%.

Q: And the “Relative fluorescent intensity of FYVE-RFP (%)” value (4 h)?
A: Its value is 84.85 ± 2.83%.

Q: What about the “Relative fluorescent intensity of FYVE-RFP (%)” value (8 h) of the same compound?
A: Its value is 88.42 ± 6.29%.

Q: `C=C[C@H]1C[N@@]2CC[C@H]1C[C@H]2[C@H](O)c1ccnc2ccc(OC)cc12` [Quinine] was tested. Which “Relative fluorescent intensity of FYVE-RFP (%)” value (2 h) did it give?
A: Its value is 70.35 ± 10.23%.

Q: And the “Relative fluorescent intensity of FYVE-RFP (%)” value (4 h)?
A: Its value is 78.03 ± 6.33%.

Q: What about the “Relative fluorescent intensity of FYVE-RFP (%)” value (8 h) of the same compound?
A: Its value is 60.70 ± 6.59%.
